Values after ≈ are worked out from the molar mass of the structure shown.
Assays:
Human alphaherpesvirus 2 [1] = test: Antiviral activity against HSV-2 assessed as inhibition of viral growth; assay type: functional, organism-based
[2] = test system: Human immunodeficiency virus; test: Antiviral activity against HIV assessed as inhibition of viral growth; assay type: functional, organism-based; settings: Human immunodeficiency virus 1
Human alphaherpesvirus 1 [3] = test: Antiviral activity against HSV-1 assessed as inhibition of viral growth; assay type: functional, organism-based
Hepatitis B virus = test: Antiviral activity against HBV assessed as inhibition of viral growth; assay type: functional, organism-based
Human betaherpesvirus 5 [4] = test: Antiviral activity against HCMV assessed as inhibition of viral growth; assay type: functional, organism-based
Murid betaherpesvirus 1 = test: Antiviral activity against MCMV Smith infected in MEF cells assessed as reduction in plaque formation by plaque reduction assay; assay type: functional; settings: Murid betaherpesvirus 1, Smith, read-out: ED50 (the source's name)
[5] = test system: Human immunodeficiency virus; test: Antiviral activity against HIV RF assessed as inhibition of viral growth; assay type: functional, organism-based; settings: Human immunodeficiency virus 1, RF
Human alphaherpesvirus 2 [6] = test: Antiviral activity against thymidine kinase deficient HSV-2 assessed as inhibition of viral replication by plaque reduction assay; assay type: functional, organism-based
[7] = test system: Human immunodeficiency virus 1; test: Antiviral activity against HIV-1 HTLV-IIIB infected in human MT4 cells assessed as inhibition of viral replication; assay type: functional, organism-based; settings: Human immunodeficiency virus 1, HTLV-IIIB
HUVEC [8] = test: Angiogenic activity against HUVEC cells assessed as relative area of tube formation at 100 uM incubated for 10 days by tube formation assay; assay type: functional, Homo sapiens; settings: time 10 day
[9] = test system: Human immunodeficiency virus 1; test: Antiviral activity against HIV-1 assessed as inhibition of viral replication; assay type: functional, organism-based
[10] = test system: Human immunodeficiency virus 1; test: Antiviral activity against HIV-1 HTLV-IIIB infected in human MT4 cells assessed as inhibition of viral replication incubated for 4 days by immunofluorescence assay; assay type: functional, organism-based; settings: Human immunodeficiency virus 1, HTLV-IIIB, MT4, 96 h
Human alphaherpesvirus 2 [11] = test: Antiviral activity against HSV-2 assessed as inhibition of cytopathic effect at 5.8 ug per well relative to control; assay type: functional
[12] = Cytotoxicity against African green monkey Vero cells assessed as inhibition of cell growth at 132.6 microg/ml relative to control; assay type: toxicity, cell-based; settings: chlorocebus sabaeus, at 132.6 µg/mL
[13] = test system: Human immunodeficiency virus; test: Antiviral activity against HIV infected in human MT4 cells by plaque reduction assay; assay type: functional, organism-based; settings: Human immunodeficiency virus 1, MT4
Human betaherpesvirus 5 [14] = test: Antiviral activity against HCMV AD169 infected in HELF cells by plaque reduction assay; assay type: functional, organism-based; settings: Human betaherpesvirus 5, AD169, HELF
[15] = test system: Human immunodeficiency virus 2; test: Antiviral activity against HIV-2 D194 infected in PBMC assessed as inhibition of viral growth; assay type: functional, organism-based; settings: Human immunodeficiency virus 2, D194, PBMC
[16] = test system: Human immunodeficiency virus 1; test: Antiviral activity against HIV-1 III B infected in PBMC assessed as inhibition of viral growth; assay type: functional, organism-based; settings: Human immunodeficiency virus 1, III B
HUVEC [17] = test: Angiogenic activity against HUVEC cells assessed as relative area of tube formation at 100 uM incubated for 96 hrs by Alexa fluor 488 staining based analysis; assay type: functional, Homo sapiens
Human alphaherpesvirus 1 [18] = test: Antiviral activity against HSV-1 KOS infected in African green monkey Vero cells assessed as reduction in virus induced cytopathogenicity by plaque reduction assay; assay type: functional, organism-based; settings: Human alphaherpesvirus 1, KOS
Human alphaherpesvirus 1 [19] = test: Antiviral activity against thymidine kinase positive HSV-1 E-377 infected in HFF cells assessed as reduction in viral replication incubated for 3 days by crystal violet staining based microplate reader analysis; assay type: functional, organism-based; settings: Human alphaherpesvirus 1, E-377, HFF, 72 h
Human alphaherpesvirus 1 [20] = test: (§1) Antiviral activity against lethal systemic HSV-1 123 infected in po dosed Swiss mouse model assessed as increase in animal survival administered as single double strength loading dose at 7 hrs post-inoculation and single strength dose at 23, 31, 47, 55, 71, 79 hrs post-inoculation and monitored for 21 days; assay type: functional; settings: time 21 day
Human alphaherpesvirus 2 [21] = test: Antiviral activity against HSV-2 186 infected in African green monkey Vero cells assessed as reduction in virus induced cytopathogenicity by plaque reduction assay; assay type: functional, organism-based; settings: Human alphaherpesvirus 2, 186, Vero
Cytomegalovirus = test: Antiviral activity against CMV AD-169 infected in HEL cells assessed as reduction in virus plaque formation; assay type: functional, organism-based; settings: Human betaherpesvirus 5, AD-169, HEL
Human alphaherpesvirus 1 [22] = test: Antiviral activity against thymidine kinase positive HSV-1 123 infected in HFF cells assessed as reduction in viral replication incubated for 3 days by crystal violet staining based microplate reader analysis; assay type: functional, organism-based; settings: Human alphaherpesvirus 1, 123, HFF, 72 h
Human alphaherpesvirus 1 [23] = test: Antiviral activity against thymidine kinase positive HSV-1 SC-16 infected in HFF cells assessed as reduction in viral replication incubated for 3 days by crystal violet staining based microplate reader analysis; assay type: functional, organism-based; settings: Human alphaherpesvirus 1, SC-16, HFF, 72 h
Human alphaherpesvirus 1 [24] = test: as §1, with “intracerebral” for “systemic”; assay type: functional; settings: time 21 day
[25] = test system: Human immunodeficiency virus 1; test: Antiviral activity against HIV-1 infected in human CEM cells assessed as inhibition of cytopathogenicity at 400 uM relative to control; assay type: functional; settings: Human immunodeficiency virus 1, CCRF-CEM
CEM = test: Inhibition of HIV reverse transcriptase in human CEM cells at 400 uM relative to control; assay type: cell-based; settings: Human immunodeficiency virus

Question: Which IC50 (Human alphaherpesvirus 2 [1]) does the source give for `Nc1ncnc2c1ncn2[C@@H]1C[C@H](CO)[C@H]1CO` here?
Answer: The IC50 was 1600 nM.

Question: And the IC50 [2]?
Answer: Its IC50 is 30 nM.

Question: And the IC50 (Human alphaherpesvirus 1 [3])?
Answer: Its IC50 is 1600 nM.

Question: And the IC50 (Hepatitis B virus)?
Answer: Its IC50 is 24 nM.

Question: What about the IC50 (Human betaherpesvirus 5 [4]) of the same compound?
Answer: Its IC50 is 12000 nM.

Question: What about the EC50 (Murid betaherpesvirus 1) of the same compound?
Answer: The EC50 was 0.05 µg/mL (≈ 0.201 µM).

Question: With `[N-]=[N+]=N[C@H]1[C@H](n2cnc3c(N)ncnc32)O[C@@H]1CO` as the compound, how does the IC50 [5] read?
Answer: Its IC50 is 6 µg/mL (≈ 22.9 µM).

Question: Which IC50 (Human alphaherpesvirus 2 [1]) does the source give for `Nc1nc(=O)c2ncn([C@@H]3C[C@H](CO)[C@H]3CO)c2[nH]1` [LOBUCAVIR] here?
Answer: Its IC50 is 80 nM.

Question: And the IC50 [2]?
Answer: The IC50 was 300 nM.

Question: What about the IC50 (Human alphaherpesvirus 1 [3]) of the same compound?
Answer: Its IC50 is 47 nM.

Question: What about the IC50 (Hepatitis B virus) of the same compound?
Answer: The IC50 was 860 nM.

Question: What about the IC50 (Human betaherpesvirus 5 [4]) of the same compound?
Answer: The IC50 was 400 nM.

Question: And the EC50 (Murid betaherpesvirus 1)?
Answer: The EC50 was 0.1 µg/mL (≈ 0.377 µM).

Question: What does the source list for `Nc1nc(F)nc2c1ncn2[C@@H]1O[C@H](CO)[C@H]1CO`?
Answer: IC50 (Human alphaherpesvirus 2 [6]): 3900 nM; IC50 [7]: 16 nM

Question: With `Nc1nc(Cl)nc2c1ncn2[C@H]1C[C@H](CO)C1` as the compound, how does the Ratio (HUVEC [8]) read?
Answer: Its Ratio is 3.32.

Question: Which results are given for `Nc1ncnc2c1ncn2[C@@H]1O[C@H](CO)[C@H]1CO`?
Answer: EC50 [9]: 1.4 µg/mL (≈ 5.57 µM); EC50 [10]: 1400 nM; inhibition at 5.8 µg/disc (Human alphaherpesvirus 2 [11]): 50%; IC50 [7]: 1700 nM; inhibition at 132.6 microg/ml [12]: 50%; IC50 [13]: 4.3 µg/mL (≈ 17.1 µM); IC50 (Human betaherpesvirus 5 [14]): 13000 nM; IC50 (Human betaherpesvirus 5 [4]): 13 µg/mL; IC50 [5]: 0.5 µg/mL (≈ 1.99 µM)

Question: Which IC50 [15] does the source give for `Nc1ncnc2c1ncn2[C@H]1C[C@@](F)(CO)C1` here?
Answer: Its IC50 is 1500 nM.

Question: What about the IC50 [16] of the same compound?
Answer: The IC50 was 3900 nM.

Question: For `Nc1nc(Cl)nc2c1ncn2C1CC2(C1)CC(CO)(CO)C2`, which Ratio (HUVEC [8]) is on record?
Answer: The Ratio was 3.59.

Question: Which IC50 [15] does the source give for `O=c1[nH]cnc2c1ncn2[C@H]1C[C@@](F)(CO)C1` here?
Answer: The IC50 was 46000 nM.

Question: What about the IC50 [16] of the same compound?
Answer: Its IC50 is 95000 nM.

Question: With `Nc1nc(Cl)nc2c1ncn2[C@@H]1C[C@@H](CO)[C@H]1CO` as the compound, how does the Ratio (HUVEC [8]) read?
Answer: The Ratio was 3.43.

Question: For `Nc1nc(Br)nc2c1ncn2[C@@H]1C[C@H](CO)[C@H]1CO`, which Ratio (HUVEC [17]) is on record?
Answer: Its Ratio is 2.1.

Question: For `CC(C)Oc1nc(N)c2ncn([C@@H]3C[C@H](CO)[C@H]3CO)c2n1`, which Ratio (HUVEC [8]) is on record?
Answer: The Ratio was 1.9.

Question: For `Nc1nc2c(ncn2[C@H]2C[C@@H](CO)C2)c(=O)[nH]1`, which EC50 [2] is on record?
Answer: Its EC50 is 8000 nM.

Question: For `Nc1ncnc2c1ncn2[C@H]1C[C@@H](CO)C1`, which EC50 [2] is on record?
Answer: Its EC50 is 800 nM.

Question: For `Nc1nc2c(ncn2COCCO)c(=O)[nH]1` [ACYCLOVIR], which IC50 (Human alphaherpesvirus 2 [6]) is on record?
Answer: Its IC50 is 12000 nM.

Question: What about the EC50 (Human alphaherpesvirus 2 [1]) of the same compound?
Answer: Its EC50 is 0.39 µg/mL (≈ 1.73 µM).

Question: And the EC50 (Human alphaherpesvirus 1 [18])?
Answer: Its EC50 is 0.41 µg/mL (≈ 1.82 µM).

Question: What about the EC50 (Human alphaherpesvirus 1 [19]) of the same compound?
Answer: Its EC50 is 200 nM.

Question: What about the ED50 (Human alphaherpesvirus 1 [20]) of the same compound?
Answer: The ED50 was over 500 mg/kg.day.

Question: What about the EC50 (Human alphaherpesvirus 1 [3]) of the same compound?
Answer: The EC50 was 0.32 µg/mL (≈ 1.42 µM).

Question: What about the EC50 (Human alphaherpesvirus 2 [21]) of the same compound?
Answer: The EC50 was 0.18 µg/mL (≈ 0.799 µM).

Question: And the EC50 (Cytomegalovirus)?
Answer: Its EC50 is 40 µg/mL (≈ 178 µM).

Question: What about the EC50 (Human alphaherpesvirus 1 [22]) of the same compound?
Answer: Its EC50 is 200 nM.

Question: What about the EC50 (Human alphaherpesvirus 1 [23]) of the same compound?
Answer: Its EC50 is 200 nM.

Question: What about the ED50 (Human alphaherpesvirus 1 [24]) of the same compound?
Answer: The ED50 was over 500 mg/kg.day.

Question: Which results are given for `Nc1nc2c(ncn2[C@H]2C[C@@](O)(CO)C2)c(=O)[nH]1`?
Answer: inhibition at 400 µM [25]: 59%; inhibition (CEM): < 50%

Question: What does the source list for `Nc1nc(N)c2ncn([C@@H]3O[C@H](CO)[C@H]3CO)c2n1`?
Answer: EC50 [10]: 2200 nM; IC50 (Human betaherpesvirus 5 [14]): 1000 nM
